Results as given in PubChem BioAssay AID2060891 (Molecular Pharmacology Branch, DTP, NCI, 2025).

System: K98450-129-R-PDC complex spheroid growth, percent test/control
Assay: Anticancer human tumor K98450-129-R-PDC patient-derived colon adenocarcinoma cell line growth inhibition [RAS]
Details: for IC50: curve of first compound; for viability, T/C: stronger effect = lower value
In short: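 Multi-cell-type spheroids: tumor cells plus HUVEC endothelial cells and mesenchymal stem cells. RAS-pathway inhibitors were combined with targeted agents, each dosed in half-log steps down from clinical Cmax, or from 10 microM when Cmax was unknown.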

[1] = second compound 0.0316 µM, first compound 0.0316 µM
[2] = second compound 0.0316 µM, first compound 0.1 µM
[3] = second compound 0.0316 µM, first compound 0.316 µM
[4] = second compound 0.0316 µM, first compound 1 µM
[5] = second compound 0.1 µM, first compound 0.0316 µM
[6] = second compound 0.1 µM, first compound 0.1 µM
[7] = second compound 0.1 µM, first compound 0.316 µM
[8] = second compound 0.1 µM, first compound 1 µM
[9] = second compound 0.316 µM, first compound 0.0316 µM
[10] = second compound 0.316 µM, first compound 0.1 µM
[11] = second compound 0.316 µM, first compound 0.316 µM
[12] = second compound 0.316 µM, first compound 1 µM
[13] = second compound 1 µM, first compound 0.0316 µM
[14] = second compound 1 µM, first compound 0.1 µM
[15] = second compound 1 µM, first compound 0.316 µM
[16] = second compound 1 µM, first compound 1 µM
[17] = second compound 3.16 µM, first compound 0.0316 µM
[18] = second compound 3.16 µM, first compound 0.1 µM
[19] = second compound 3.16 µM, first compound 0.316 µM
[20] = second compound 3.16 µM, first compound 1 µM
[21] = second compound 10 µM, first compound 0.0316 µM
[22] = second compound 10 µM, first compound 0.1 µM
[23] = second compound 10 µM, first compound 0.316 µM
[24] = second compound 10 µM, first compound 1 µM
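Note: spheroids exposed to agents for seven days before the viability readout.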
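Throughout, for viability, T/C: luminescence used as a proxy for viable cell amount.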

C=CC(=O)N1CCN(c2nc(OCC3CCCN3C)nc3c(F)c(-c4nc(N)cc(C)c4C(F)(F)F)c(Cl)cc23)C(C)C1 (centres undefined) + C#Cc1c(F)ccc2cc(O)cc(-c3ncc4c(N5CC6CCC(C5)N6)nc(OCC56CCCN5CC(F)C6)nc4c3F)c12
IC50 (second compound 0.0316 µM): 164 nM | IC50 (second compound 0.1 µM): 143 nM | IC50 (second compound 0.316 µM): 137 nM | IC50 (second compound 1 µM): 93.2 nM | IC50 (second compound 3.16 µM): 111 nM | IC50 (second compound 10 µM): 134 nM | viability, T/C (second compound 0.0316 µM, first compound 0.00316 µM): 94.9% | viability, T/C (second compound 0.0316 µM, first compound 0.01 µM): 81.4% | viability, T/C [1]: 68.7% | viability, T/C [2]: 55% | viability, T/C [3]: 43.6% | viability, T/C [4]: 30.8% | viability, T/C (second compound 0.1 µM, first compound 0.00316 µM): 95.4% | viability, T/C (second compound 0.1 µM, first compound 0.01 µM): 81.3% | viability, T/C [5]: 68.7% | viability, T/C [6]: 54.3% | viability, T/C [7]: 40.5% | viability, T/C [8]: 31.4% | viability, T/C (second compound 0.316 µM, first compound 0.00316 µM): 97.7% | viability, T/C (second compound 0.316 µM, first compound 0.01 µM): 86.4% | viability, T/C [9]: 70.9% | viability, T/C [10]: 58.8% | viability, T/C [11]: 33.9% | viability, T/C [12]: 32.6% | viability, T/C (second compound 1 µM, first compound 0.00316 µM): 93.4% | viability, T/C (second compound 1 µM, first compound 0.01 µM): 88.7% | viability, T/C [13]: 67% | viability, T/C [14]: 50.2% | viability, T/C [15]: 37.2% | viability, T/C [16]: 33.7% | viability, T/C (second compound 3.16 µM, first compound 0.00316 µM): 94.3% | viability, T/C (second compound 3.16 µM, first compound 0.01 µM): 80.4% | viability, T/C [17]: 69.7% | viability, T/C [18]: 52% | viability, T/C [19]: 34.7% | viability, T/C [20]: 26.1% | viability, T/C (second compound 10 µM, first compound 0.00316 µM): 82.9% | viability, T/C (second compound 10 µM, first compound 0.01 µM): 78.4% | viability, T/C [21]: 68.8% | viability, T/C [22]: 53.1% | viability, T/C [23]: 38.9% | viability, T/C [24]: 24.6%

CC(=O)OC12COC1CC(O)C1(C)C(=O)C(O)C3=C(C)C(OC(=O)C(O)C(NC(=O)OC(C)(C)C)c4ccccc4)CC(O)(C(OC(=O)c4ccccc4)C21)C3(C)C (centres undefined) + C#Cc1c(F)ccc2cc(O)cc(-c3ncc4c(N5CC6CCC(C5)N6)nc(OCC56CCCN5CC(F)C6)nc4c3F)c12
IC50 (second compound 0.0316 µM): 415 nM | IC50 (second compound 0.1 µM): 428 nM | IC50 (second compound 0.316 µM): 482 nM | IC50 (second compound 1 µM): 466 nM | IC50 (second compound 3.16 µM): 460 nM | IC50 (second compound 10 µM): 401 nM | viability, T/C [1]: 105% | viability, T/C [2]: 98% | viability, T/C [3]: 54.7% | viability, T/C [4]: 34.7% | viability, T/C (second compound 0.0316 µM, first compound 3.16 µM): 33.1% | viability, T/C (second compound 0.0316 µM, first compound 10 µM): 35.2% | viability, T/C [5]: 109% | viability, T/C [6]: 103% | viability, T/C [7]: 54.7% | viability, T/C [8]: 38% | viability, T/C (second compound 0.1 µM, first compound 3.16 µM): 32.8% | viability, T/C (second compound 0.1 µM, first compound 10 µM): 34.8% | viability, T/C [9]: 105% | viability, T/C [10]: 103% | viability, T/C [11]: 59% | viability, T/C [12]: 35.5% | viability, T/C (second compound 0.316 µM, first compound 3.16 µM): 32.4% | viability, T/C (second compound 0.316 µM, first compound 10 µM): 33.4% | viability, T/C [13]: 101% | viability, T/C [14]: 101% | viability, T/C [15]: 57.9% | viability, T/C [16]: 36.6% | viability, T/C (second compound 1 µM, first compound 3.16 µM): 32.6% | viability, T/C (second compound 1 µM, first compound 10 µM): 32.1% | viability, T/C [17]: 93.2% | viability, T/C [18]: 97.1% | viability, T/C [19]: 57.9% | viability, T/C [20]: 35% | viability, T/C (second compound 3.16 µM, first compound 3.16 µM): 34.2% | viability, T/C (second compound 3.16 µM, first compound 10 µM): 31.9% | viability, T/C [21]: 86.1% | viability, T/C [22]: 87.8% | viability, T/C [23]: 55% | viability, T/C [24]: 31.9% | viability, T/C (second compound 10 µM, first compound 3.16 µM): 30.6% | viability, T/C (second compound 10 µM, first compound 10 µM): 29%
